Results reported in patent US20230287415A1, “COMBINED THERAPY AGAINST CANCER” (FUNDACIÓ INSTITUT HOSPITAL DEL MAR D'INVESTIGACIONS …, priority 2020, published 2023).

How the values were obtained:
LCoR = assay: Doxorubicin treatment of breast cancer cells, LCoR mRNA by qRT-PCR; type: cell-based, human; settings: 360 nM during 48 hours, MDA-MB-231 cells
Experimental: Low dose treatment of breast cancer cells (360 nM during 48 hours) induced an increase of 2.3 fold change mRNA expression of LCoR in MDA-MB-231 cells.
Cell lines, culture conditions and treatments. All cell lines used in the study, including mammary epithelial cell lines (human HMLE), breast cancer cell lines (human MDA-MB-231 and mouse 4TO7; PyMT8119; AT3 cell lines) and other cell lines (HEK293T, H29 and HeLa), were cultured using the standard conditions according the American Type Culture Collection (ATCC) instructions. Doxorrubicin treatment was performed at 360 nM during 48 hours in MDA-MB-231 cells.
qRT-PCR analyses. Total mRNA was isolated using the RNAeasy isolation Kit (QIAGEN). mRNA reverse transcription was done using Applied Biosystems reactants and real-time quantitative PCR performed using the Power SYBR green PCR master mix (Applied Biosystems). All analyses were performed using an ABI 7900HT PCR machine. mRNA expression was normalized by the expression of GAPDH in each sample.

PyMT8119-OVA cells = assay: Cytotoxic T-cell lymphocyte (CTL) co-culture assay; type: cell-based, mouse; settings: OT-I CD8+ T-cells co-cultured with LCoR-OE tumor cells, in combination with anti-PD-L1
Source text: These paradoxical effects of LCoR, increased immunogenicity vs. increased PD-L1, poses LCoR expressing cells as largely responsive cells to anti-PD-L1 immune-checkpoint blockade therapy.
The transgenic OT-I mouse model strain with specific TCR for the OVA-derived peptide SIINFEKL MHC-I presented, were used to isolate splenocytes and CD8+T-cells that specifically recognize the SIINFEKL peptide (OVA 257-264). 9-week OT-I mice were sacrificed to obtain the spleen. Using mechanical dissociation of the spleen over a sterile 40 μm mesh screen. Total splenocytes were plated in six well plates and non-attached T cells were separated from adherent dendritic cells (DC) after 24 hours. CD8+T-cells were isolated by FACS.
Cytotoxic T-cell lymphocyte (CTL) co-culture assays. CD8+ T-cells were isolated from the spleen of OT-I mice and activated in culture with OVA peptide during 48 hours. Activated CD8+ T-cells were cocultured in 24-well plates with PyMT8119-OVA cells in different ratios of effector T-cells:tumor cells (E:T). After 5 days of coculture, T-cells and debris were removed, washed with media and stained with Sulforhodamine B (SRB) for measuring cytotoxicity (Vichai and Kirtikara 2006). […]

Compound | increase of mRNA expression of LCoR (LCoR) [fold change] | sensitivity to immune detection and killing (PyMT8119-OVA cells)
COc1cccc2c1C(=O)c1c(O)c3c(c(O)c1C2=O)C[C@@](O)(C(=O)CO)C[C@@H]3O[C@H]1C[C@H](N)[C@H](O)[C@H](C)O1 [Doxorubicin] | 2.3 | 
Atezolizumab |  | enhanced sensitivity to immune detection and killing
